Assay results reported in patent US8124647B2 (priority 2002, dated 2012).
Where two headings read alike, the source gives them in different places.

Target: T1, human androgen receptor (Homo sapiens, UniProt P10275)
T1 construct: expressed in transfected cells; host or cells: CHO cells, cell line CHO-AR-pMMTV-LUC 1G12-A5-CA
T1 sequence (P10275 1-920): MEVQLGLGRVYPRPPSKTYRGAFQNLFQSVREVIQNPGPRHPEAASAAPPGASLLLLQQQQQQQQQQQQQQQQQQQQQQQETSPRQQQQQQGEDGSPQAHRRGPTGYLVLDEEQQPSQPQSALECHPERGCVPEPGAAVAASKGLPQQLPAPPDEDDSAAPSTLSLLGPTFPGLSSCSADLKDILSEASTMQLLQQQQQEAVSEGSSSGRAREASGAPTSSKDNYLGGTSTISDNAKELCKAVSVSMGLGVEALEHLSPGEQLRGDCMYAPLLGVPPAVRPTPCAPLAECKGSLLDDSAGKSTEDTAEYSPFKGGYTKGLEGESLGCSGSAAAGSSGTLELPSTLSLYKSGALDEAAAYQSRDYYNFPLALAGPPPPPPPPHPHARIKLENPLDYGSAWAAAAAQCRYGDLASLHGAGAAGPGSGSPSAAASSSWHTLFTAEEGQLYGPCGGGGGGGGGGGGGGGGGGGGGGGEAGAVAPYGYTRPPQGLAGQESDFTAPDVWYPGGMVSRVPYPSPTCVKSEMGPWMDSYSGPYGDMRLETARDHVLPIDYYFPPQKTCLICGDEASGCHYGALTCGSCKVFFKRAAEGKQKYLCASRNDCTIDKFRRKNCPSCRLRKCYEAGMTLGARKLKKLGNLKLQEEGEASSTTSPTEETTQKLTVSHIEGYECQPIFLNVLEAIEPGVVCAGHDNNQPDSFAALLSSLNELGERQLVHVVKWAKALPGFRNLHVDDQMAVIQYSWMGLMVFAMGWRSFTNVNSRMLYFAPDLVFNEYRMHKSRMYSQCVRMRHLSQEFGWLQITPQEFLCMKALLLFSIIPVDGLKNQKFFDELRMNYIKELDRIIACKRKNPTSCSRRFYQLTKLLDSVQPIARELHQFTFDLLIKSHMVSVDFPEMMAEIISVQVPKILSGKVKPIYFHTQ
Test: androgenic activity (EC50, potency, efficacy), transactivation bioassay in CHO-AR-pMMTV-LUC cells in the presence of 0.1 μmol/l onapristone (Table 5)
Type: cell-based
Details: for Emax: read-out: ago efficacy; for ago potency: potency expressed as percentage of DHT activity, in the presence of 0.1 μmol/l onapristone
Method: The androgenic activity (EC50, potency, and efficacy) of the compounds in Table 5 was determined in an in vitro bioassay of Chinese hamster ovary (CHO) cells stably transfected with the human androgen receptor expression plasmid and a reporter plasmid in which the MMTV promoter is linked to the luciferase reporter gene. The cell line CHO-AR-pMMTV-LUC 1G12-A5-CA is described in Schoonen et al. (J. Steroid Biochem. Moles. Biol. […]; 74: 213-222). The androgen receptor activity of compounds was determined in the presence of 0.1 μmol/l onapristone. The maximal efficacy in the presence of 100 nmol/l DHT was set as 100%. The potencies are expressed as percentage of DHT activity.

[1] = maximal intrinsic activity, activity in the presence of 100 nM DHT set at 1.00, CHO-AR-pMMTV-LUC cells, 0.1 μmol/l onapristone

Question: With `CC(=O)Nc1ccc2c(Sc3ccccc3[N+](=O)[O-])cn(Cc3ccccn3)c2c1` [Compound 101, N-[3-(2-Nitro-phenylsulfanyl]-1-pyridin-2-ylmethyl-1H-indol-6-yl]-acetamide] as the compound, how does the Emax [1] read?
Answer: The Emax was 50 to 80%.

Question: And the ago potency (CHO-AR-pMMTV-LUC cells)?
Answer: Its ago potency is “+ (between 1% and 5%)”.

Question: How did the Emax [1] turn out when `CCC(=O)Nc1ccc2c(Sc3ccccc3[N+](=O)[O-])cn(Cc3ccccn3)c2c1` [Compound 102, N-[3-(2-Nitro-phenylsulfanyl)-1-pyridin-2-ylmethyl-1H-indol-6-yl]-propionamide] was run?
Answer: The Emax was 50 to 80%.

Question: And the ago potency (CHO-AR-pMMTV-LUC cells)?
Answer: The ago potency was “+ (between 1% and 5%)”.

Question: What does the source list for `CC(=O)Nc1ccc2c(Sc3ccccc3[N+](=O)[O-])cn(Cc3cccnc3)c2c1` [Compound 103, N-[3-(2-Nitro-phenylsulfanyl)-1-pyridin-3-ylmethyl-1H-indol-6-yl]-acetamide]?
Answer: Emax [1]: 50 to 80%; ago potency (CHO-AR-pMMTV-LUC cells): + (between 1% and 5%)

Question: What does the source list for `O=C(CF)Nc1ccc2c(Sc3ccccc3[N+](=O)[O-])cn(Cc3cccnc3)c2c1` [Compound 104, 2-Fluoro-N-[3-(2-nitro-phenylsulfanyl)-1-pyridin-3-ylmethyl-1H-indol-6-yl]-acetamide]?
Answer: ago potency (CHO-AR-pMMTV-LUC cells): + (between 1% and 5%); Emax: < 20%

Question: Which results are given for `CCC(=O)Nc1ccc2c(Sc3ccccc3[N+](=O)[O-])cn(Cc3cccnc3)c2c1` [Compound 105, N-[3-(2-Nitro-phenylsulfany)-1-pyridin-3-ylmethyl-1H-indol-6-yl]-propionamide]?
Answer: Emax [1]: 20 to 50%; ago potency (CHO-AR-pMMTV-LUC cells): + (between 1% and 5%)

Question: What does the source list for `CS(=O)(=O)Nc1ccc2c(Sc3ccccc3[N+](=O)[O-])cn(Cc3cc(F)cc(F)c3)c2c1` [Compound 106, N-[1-(3,5-Difluoro-benzyl)-3-(2-nitro-phenylsulfanyl)-1H-indol-6-yl]-methanesulfonamide]?
Answer: Emax [1]: > 80%; ago potency (CHO-AR-pMMTV-LUC cells): + (between 1% and 5%)

Question: With `O=[N+]([O-])c1ccccc1Sc1cn(Cc2cc(F)cc(F)c2)c2cc(NS(=O)(=O)c3ccsc3)ccc12` [Compound 107, Thiophene-3-sulfonic acid [1-(3,5-difluoro-benzyl)-3-(2-nitro-phenylsulfanyl)-1H-indol-6-yl]-amide] as the compound, how does the Emax [1] read?
Answer: Its Emax is over 80%.

Question: What about the ago potency (CHO-AR-pMMTV-LUC cells) of the same compound?
Answer: The ago potency was “+ (between 1% and 5%)”.

Question: Which Emax [1] does the source give for `Cn1cnc(S(=O)(=O)Nc2ccc3c(Sc4ccccc4[N+](=O)[O-])cn(Cc4cc(F)cc(F)c4)c3c2)c1` [Compound 108, 1-Methyl-1H-imidazole-4-sulfonic acid [1-(3,5-difluoro-benzyl)-3-(2-nitro-phenylsulfanyl)-1H-indol-6-yl]-amide] here?
Answer: Its Emax is over 80%.

Question: What about the ago potency (CHO-AR-pMMTV-LUC cells) of the same compound?
Answer: Its ago potency is “+ (between 1% and 5%)”.

Question: How did the Emax [1] turn out when `CN(C)C(=O)c1ccc2c(Sc3ccccc3[N+](=O)[O-])cn(Cc3ccccn3)c2c1` [Compound 109, 3-(2-Nitro-phenylsulfanyl)-1-pyridin-2-ylmethyl-1H-indole-6-carboxylic acid dimethylamide] was run?
Answer: The Emax was over 80%.

Question: What about the ago potency (CHO-AR-pMMTV-LUC cells) of the same compound?
Answer: Its ago potency is “+ (between 1% and 5%)”.

Question: How did the Emax [1] turn out when `CNC(=O)c1ccc2c(Sc3ccccc3[N+](=O)[O-])cn(Cc3ccccn3)c2c1` [Compound 110, 3-(2-Nitro-phenylsulfanyl)-1-pyridin-2-ylmethyl-1H-indole-6-carboxylic acid methylamide] was run?
Answer: The Emax was 50 to 80%.

Question: And the ago potency (CHO-AR-pMMTV-LUC cells)?
Answer: The ago potency was “+ (between 1% and 5%)”.

Question: What does the source list for `NC(=O)c1ccc2c(Sc3ccccc3[N+](=O)[O-])cn(Cc3ccccn3)c2c1` [Compound 111, 3-(2-Nitro-phenylsulfanyl)-1-pyridin-2-ylmethyl-1H-indole-6-carboxylic acid amide]?
Answer: Emax [1]: 20 to 50%; ago potency (CHO-AR-pMMTV-LUC cells): ± (between 0.1% and 1%)

Question: How did the Emax [1] turn out when `CNC(=O)c1ccc2c(Sc3ccccc3[N+](=O)[O-])cn(Cc3cccnc3)c2c1` [Compound 112, 3-(2-Nitro-phenylsulfanyl)-1-pyridin-3-ylmethyl-1H-indole-6-carboxylic acid methylamide] was run?
Answer: Its Emax is 20 to 50%.

Question: And the ago potency (CHO-AR-pMMTV-LUC cells)?
Answer: Its ago potency is “+ (between 1% and 5%)”.

Question: How did the Emax [1] turn out when `CCNC(=O)c1ccc2c(Sc3ccccc3[N+](=O)[O-])cn(Cc3cccnc3)c2c1` [Compound 113, 3-(2-Nitro-phenylsulfanyl)-1-pyridin-3-ylmethyl-1H-indole-6-carboxylic acid ethylamide] was run?
Answer: Its Emax is 50 to 80%.

Question: And the ago potency (CHO-AR-pMMTV-LUC cells)?
Answer: Its ago potency is “+ (between 1% and 5%)”.

Question: With `O=C(NC1CC1)c1ccc2c(Sc3ccccc3[N+](=O)[O-])cn(Cc3cccnc3)c2c1` [Compound 114, 3-(2-Nitro-phenylsulfanyl)-1-pyridin-3-ylmethyl-1H-indole-6-carboxylic acid cyclopropylamide] as the compound, how does the Emax [1] read?
Answer: The Emax was over 80%.

Question: And the ago potency (CHO-AR-pMMTV-LUC cells)?
Answer: The ago potency was “+ (between 1% and 5%)”.

Question: For `COc1ccc2c(Sc3ccccc3[N+](=O)[O-])cn(Cc3cncnc3)c2c1` [Compound 115, 6-Methoxy-3-(2-nitro-phenylsulfanyl)-1-pyrimidin-5-ylmethyl-1H-indole], which Emax [1] is on record?
Answer: Its Emax is 50 to 80%.

Question: And the ago potency (CHO-AR-pMMTV-LUC cells)?
Answer: The ago potency was “++ (>5%)”.

Question: Which Emax [1] does the source give for `COc1ccc2c(Sc3ccccc3[N+](=O)[O-])cn(Cc3ccncn3)c2c1` [Compound 116, 6-Methoxy-3-(2-nitro-phenylsulfanyl)-1-pyrimidin-4-ylmethyl-1H-indole] here?
Answer: Its Emax is 50 to 80%.

Question: What about the ago potency (CHO-AR-pMMTV-LUC cells) of the same compound?
Answer: The ago potency was “+ (between 1% and 5%)”.

Question: What does the source list for `COc1ccc2c(Sc3ccccc3[N+](=O)[O-])cn(Cc3cnccn3)c2c1` [Compound 117, 6-Methoxy-3-(2-nitro-phenylsulfanyl)-1-pyrazin-2-ylmethyl-1H-indole]?
Answer: Emax [1]: 50 to 80%; ago potency (CHO-AR-pMMTV-LUC cells): + (between 1% and 5%)

Question: How did the Emax [1] turn out when `O=CNc1ccc2c(Sc3ccccc3[N+](=O)[O-])cn(Cc3cncnc3)c2c1` [Compound 118, N-[3-(2-Nitro-phenylsulfanyl)-1-pyrimidin-5-ylmethyl-1H-indol-6-yl]-formamide] was run?
Answer: Its Emax is 50 to 80%.

Question: What about the ago potency (CHO-AR-pMMTV-LUC cells) of the same compound?
Answer: The ago potency was “++ (>5%)”.

Question: Which Emax [1] does the source give for `N#Cc1ccc2c(Sc3ccccc3[N+](=O)[O-])cn(Cc3ccccn3)c2c1` [Compound 119, 3-(2-Nitro-phenylsulfanyl)-1-pyridin-2-ylmethyl-1H-indole-6-carbonitrile] here?
Answer: Its Emax is over 80%.

Question: And the ago potency (CHO-AR-pMMTV-LUC cells)?
Answer: The ago potency was “++ (>5%)”.

Question: With `Cl.N#Cc1ccc2c(Sc3ccccc3[N+](=O)[O-])cn(Cc3ccccn3)c2c1` [Compound 120, 3-(2-Nitro-phenylsulfanyl)-1-pyridin-2-ylmethyl-1H-indol-6-carbonitrile monohydrochloride] as the compound, how does the ago efficacy [1] read?
Answer: Its ago efficacy is “++ (≧0.80)”.

Question: What about the ago potency (CHO-AR-pMMTV-LUC cells) of the same compound?
Answer: Its ago potency is “++ (>5%)”.

Question: For `N#Cc1ccc2c(Sc3ccccc3[N+](=O)[O-])cn(Cc3cccnc3)c2c1` [Compound 121, 3-(2-Nitro-phenylsulfanyl)-1-pyridin-3-ylmethyl-1H-indole-6-carbonitrile], which Emax [1] is on record?
Answer: Its Emax is over 80%.

Question: What about the ago potency (CHO-AR-pMMTV-LUC cells) of the same compound?
Answer: Its ago potency is “+ (between 1% and 5%)”.

Question: For `N#Cc1ccc2c(Sc3ccccc3[N+](=O)[O-])cn(Cc3ccncc3)c2c1` [Compound 122, 3-(2-Nitro-phenylsulfanyl)-1-pyridin-4-ylmethyl-1H-indole-6-carbonitrile], which Emax [1] is on record?
Answer: The Emax was 50 to 80%.

Question: And the ago potency (CHO-AR-pMMTV-LUC cells)?
Answer: Its ago potency is “+ (between 1% and 5%)”.

Question: How did the Emax [1] turn out when `N#Cc1ccc2c(Sc3ccccc3[N+](=O)[O-])cn(Cc3cncnc3)c2c1` [Compound 123, 3-(2-Nitro-phenylsulfanyl)-1-pyrimidin-5-ylmethyl-1H-indole-6-carbonitrile] was run?
Answer: Its Emax is over 80%.

Question: What about the ago potency (CHO-AR-pMMTV-LUC cells) of the same compound?
Answer: Its ago potency is “++ (>5%)”.

Question: For `N#Cc1ccc2c(Sc3ccccc3[N+](=O)[O-])cn(Cc3ccncn3)c2c1` [Compound 124, 3-(2-Nitro-phenylsulfanyl)-1-pyrimidin-4-ylmethyl-1H-indole-6-carbonitrile], which Emax [1] is on record?
Answer: Its Emax is over 80%.

Question: And the ago potency (CHO-AR-pMMTV-LUC cells)?
Answer: Its ago potency is “++ (>5%)”.

Question: How did the Emax [1] turn out when `N#Cc1cccc(Cn2cc(Sc3ccccc3[N+](=O)[O-])c3ccc(C#N)cc32)c1` [Compound 125, 1-(3-Cyano-benzyl)-3-(2-nitro-phenylsulfanyl)-1H-indole-6-carbonitrile] was run?
Answer: The Emax was over 80%.

Question: What about the ago potency (CHO-AR-pMMTV-LUC cells) of the same compound?
Answer: The ago potency was “+ (between 1% and 5%)”.
